IC50 data for nine compounds are collected here from patent US12371454B2, “Cyclic peptide compound having Kras inhibitory action” (priority 2019, dated 2025).

Each structure is given as a SMILES string. Starred links: 1 amine or outer side, 2 acyl side, 3 side chain; linkers in the order of their positions; H or OH if unused. Positions of bridges follow the written chain, without caps; N, C: chain ends. Non-standard residues stand in square brackets, D forms with d. Residues, ends and D or L forms follow the SMILES beside them. *: point of attachment. hPhe(3-Cl-4-CF3) = N[C@@H](CCc1ccc(C(F)(F)F)c(Cl)c1)C(=O)O; hPhe(3-F,4-CF3) = N[C@@H](CCc1ccc(C(F)(F)F)c(F)c1)C(=O)O; X69 = O=C([C@@H]1C[C@H](n2ccnn2)CN1[*:1])[*:2]; NMeAla(cPent) = CN[C@@H](CC1CCCC1)C(=O)O; mXylylene = c1cc(C[*:1])cc(C[*:2])c1; NMeCha = CN[C@@H](CC1CCCCC1)C(=O)O; cisHyp = O=C(O)[C@@H]1C[C@H](O)CN1; Hyp = O=C(O)[C@@H]1C[C@@H](O)CN1; NMeChg = CN[C@H](C(=O)O)C1CCCCC1; NMeD = CN[C@@H](CC(=O)O)C(=O)O; NMeL = CN[C@@H](CC(C)C)C(=O)O; NMeV = CN[C@H](C(=O)O)C(C)C; Piperidide = C1CCN(*)CC1; Ac5c = NC1(C(=O)O)CCCC1; Ethyl(2,2-F2) = FC(F)C*; Ethyl(2-OH) = OCC*; X24 = c1cncc(C*)c1; X36 = c1cc(C*)cs1; Sar = CNCC(=O)O

In the assay the test system is Human pancreatic cancer cell line AsPC-1. The experiment in a line: Measurement of AsPC-1 cell growth inhibition (AsPC-1 CGI). It is filed as cell-based. As to conditions: 96 h. A digest of the protocol:
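AsPC-1 cells in 15% FBS RPMI-1640 were exposed to test compound for 96 hours at 37° C, with CellTiter-Glo as endpoint.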

In turn, `CC[C@H](C)[C@@H]1NC(=O)[C@H](CC(C)C)N(C)C(=O)C[C@@H](C(=O)N2CCCCC2)N(C)C(=O)[C@H](C(C)C)N(C)C(=O)C2(CCCC2)NC(=O)[C@@H]2C[C@H](n3ccnn3)CN2C(=O)[C@H](CCc2ccc(C(F)(F)F)c(Cl)c2)NC(=O)CN(C)C(=O)[C@H](CC2CCCC2)N(C)C(=O)CN(C)C(=O)CN(C)C1=O` [Compound 2115, (3S,9S,18S,21S,25S,28S,34S,36S)-3-[2-[3-chloro-4-(trifluoromethyl)phenyl]ethyl]-9-(cyclopentylmethyl)-21-isobutyl-28-isopropyl-7,10,13,16,22,26,29-heptamethyl-18-[(1S)-1-methylpropyl]-25-(piperidine-1-carbonyl)-36-(triazol-1-yl)spiro[1,4,7,10,13,16,19,22,26,29,32-undecazabicyclo[32.3.0]heptatriacontane-31,1′-cyclopentane]-2,5,8,11,14,17,20,23,27,30,33-undecone] ([NMeL]I[Sar][Sar][NMeAla(cPent)][Sar][hPhe(3-Cl-4-CF3)][X69][Ac5c][NMeV][NMeD]-Piperidide; lactam N-11) had a half-maximal inhibitory concentration (IC50) of more than 500 nM.

`CC[C@H](C)[C@@H]1NC(=O)[C@H](CC(C)C)N(C)C(=O)C[C@@H](C(=O)N2CCCCC2)N(C)C(=O)[C@H](C2CCCCC2)N(C)C(=O)C2(CCCC2)NC(=O)[C@@H]2C[C@H](OCCO)CN2C(=O)[C@H](CCc2ccc(C(F)(F)F)c(Cl)c2)NC(=O)CN(C)C(=O)[C@H](CC2CCCCC2)N(C)C(=O)CN(C)C(=O)CN(C)C1=O` [Compound 2117, (3S,9S,18S,21S,25S,28S,34S,36S)-3-[2-[3-chloro-4-(trifluoromethyl)phenyl]ethyl]-28-cyclohexyl-9-(cyclohexylmethyl)-36-(2-hydroxyethoxy)-21-isobutyl-7,10,13,16,22,26,29-heptamethyl-18-[(1S)-1-methylpropyl]-25-(piperidine-1-carbonyl)spiro[1,4,7,10,13,16,19,22,26,29,32-undecazabicyclo[32.3.0]heptatriacontane-31,1′-cyclopentane]-2,5,8,11,14,17,20,23,27,30,33-undecone] ([NMeL]I[Sar][Sar][NMeCha][Sar][hPhe(3-Cl-4-CF3)][cisHyp](Ethyl(2-OH))[Ac5c][NMeChg][NMeD]-Piperidide; lactam N-11) had a half-inhibitory concentration (IC50) of 100 to 500 nM.

Take `CC[C@H](C)[C@@H]1NC(=O)[C@H](CC(C)C)N(C)C(=O)C[C@@H](C(=O)N2CCCCC2)N(C)C(=O)[C@H](C2CCCCC2)N(C)C(=O)C2(CCCC2)NC(=O)[C@@H]2C[C@@H](OCC(F)F)CN2C(=O)[C@H](CCc2ccc(C(F)(F)F)c(Cl)c2)NC(=O)CN(C)C(=O)[C@H](CC2CCCCC2)N(C)C(=O)CN(C)C(=O)CN(C)C1=O` [Compound 2119] ([NMeL]I[Sar][Sar][NMeCha][Sar][hPhe(3-Cl-4-CF3)][Hyp](Ethyl(2,2-F2))[Ac5c][NMeChg][NMeD]-Piperidide; lactam N-11): the IC50 fell in the range of 20 to 50 nM.

Regarding `CC[C@H](C)[C@@H]1NC(=O)[C@H](CC(C)C)N(C)C(=O)C[C@@H](C(=O)N2CCCCC2)N(C)C(=O)[C@H](C2CCCCC2)N(C)C(=O)C2(CCCC2)NC(=O)[C@@H]2C[C@H](OCc3cccnc3)CN2C(=O)[C@H](CCc2ccc(C(F)(F)F)c(Cl)c2)NC(=O)CN(C)C(=O)[C@H](CC2CCCCC2)N(C)C(=O)CN(C)C(=O)CN(C)C1=O` [Compound 2120] ([NMeL]I[Sar][Sar][NMeCha][Sar][hPhe(3-Cl-4-CF3)][cisHyp](X24)[Ac5c][NMeChg][NMeD]-Piperidide; lactam N-11), the IC50 was in the range of 100 to 500 nM.

`CC[C@H](C)[C@@H]1NC(=O)[C@H](CC(C)C)N(C)C(=O)C[C@@H](C(=O)N2CCCCC2)N(C)C(=O)[C@H](C2CCCCC2)N(C)C(=O)C2(CCCC2)NC(=O)[C@@H]2C[C@@H](OCc3cccnc3)CN2C(=O)[C@H](CCc2ccc(C(F)(F)F)c(Cl)c2)NC(=O)CN(C)C(=O)[C@H](CC2CCCCC2)N(C)C(=O)CN(C)C(=O)CN(C)C1=O` [Compound 2121] ([NMeL]I[Sar][Sar][NMeCha][Sar][hPhe(3-Cl-4-CF3)][Hyp](X24)[Ac5c][NMeChg][NMeD]-Piperidide; lactam N-11) displayed an IC50 of 50 to 100 nM.

`CC[C@H](C)[C@@H]1NC(=O)[C@H](CC(C)C)N(C)C(=O)C[C@@H](C(=O)N2CCCCC2)N(C)C(=O)[C@H](C2CCCCC2)N(C)C(=O)C2(CCCC2)NC(=O)[C@@H]2C[C@@H](OCCO)CN2C(=O)[C@H](CCc2ccc(C(F)(F)F)c(Cl)c2)NC(=O)CN(C)C(=O)[C@H](CC2CCCCC2)N(C)C(=O)CN(C)C(=O)CN(C)C1=O` [Compound 2122, (3S,9S,18S,21S,25S,28S,34S,36R)-3-[2-[3-chloro-4-(trifluoromethyl)phenyl]ethyl]-28-cyclohexyl-9-(cyclohexylmethyl)-36-(2-hydroxyethoxy)-21-isobutyl-7,10,13,16,22,26,29-heptamethyl-18-[(1S)-1-methylpropyl]-25-(piperidine-1-carbonyl)spiro[1,4,7,10,13,16,19,22,26,29,32-undecazabicyclo[32.3.0]heptatriacontane-31,1′-cyclopentane]-2,5,8,11,14,17,20,23,27,30,33-undecone] ([NMeL]I[Sar][Sar][NMeCha][Sar][hPhe(3-Cl-4-CF3)][Hyp](Ethyl(2-OH))[Ac5c][NMeChg][NMeD]-Piperidide; lactam N-11) returned a half-maximal inhibitory concentration (IC50) of 50 to 100 nM.

With `CC[C@H](C)[C@@H]1NC(=O)[C@H](CC(C)C)N(C)C(=O)C[C@@H](C(=O)N2CCCCC2)N(C)C(=O)[C@H](C2CCCCC2)N(C)C(=O)C2(CCCC2)NC(=O)[C@@H]2C[C@H](OCC(F)F)CN2C(=O)[C@H](CCc2ccc(C(F)(F)F)c(Cl)c2)NC(=O)CN(C)C(=O)[C@H](CC2CCCCC2)N(C)C(=O)CN(C)C(=O)CN(C)C1=O` [Compound 2123] ([NMeL]I[Sar][Sar][NMeCha][Sar][hPhe(3-Cl-4-CF3)][cisHyp](Ethyl(2,2-F2))[Ac5c][NMeChg][NMeD]-Piperidide; lactam N-11), the IC50 fell in the range of 100 to 500 nM.

In turn, `CC[C@H](C)[C@@H]1NC(=O)[C@H](CC(C)C)N(C)C(=O)C[C@@H](C(=O)N2CCCCC2)N(C)C(=O)[C@H](C2CCCCC2)N(C)C(=O)C2(CCCC2)NC(=O)[C@@H]2C[C@@H](OCc3ccsc3)CN2C(=O)[C@H](CCc2ccc(C(F)(F)F)c(Cl)c2)NC(=O)CN(C)C(=O)[C@H](CC2CCCCC2)N(C)C(=O)CN(C)C(=O)CN(C)C1=O` [Compound 2124] ([NMeL]I[Sar][Sar][NMeCha][Sar][hPhe(3-Cl-4-CF3)][Hyp](X36)[Ac5c][NMeChg][NMeD]-Piperidide; lactam N-11) yielded a half-maximal inhibitory concentration (IC50) of 100 to 500 nM.

Regarding `CC[C@H](C)[C@@H]1NC(=O)[C@H](CC(C)C)N(C)C(=O)C[C@@H](C(=O)N2CCCCC2)N(C)C(=O)[C@H](CC(C)C)N(C)C(=O)C2(CCCC2)NC(=O)[C@@H]2C[C@@H](OCc3cccc(C)c3)CN2C(=O)[C@H](CCc2ccc(C(F)(F)F)c(F)c2)NC(=O)CN(C)C(=O)[C@H](CC2CCCCC2)N(C)C(=O)CN(C)C(=O)CN(C)C1=O` [Compound 2125] ([NMeL]I[Sar][Sar][NMeCha][Sar][hPhe(3-F,4-CF3)][Hyp](mXylylene)[Ac5c][NMeL][NMeD]-Piperidide; lactam N-11), the IC50 is more than 500 nM.

One may read the IC50 as the concentration at which inhibition is half-maximal. A low value points to greater potency in that assay.
